ChEMBL document CHEMBL3856231 (J Med Chem, 2016)

Tests used:
[1] = target: Voltage-gated inwardly rectifying potassium channel KCNH2 (Homo sapiens, UniProt Q12809); test: Inhibition of human ERG
[2] = target: T1, ALK tyrosine kinase receptor (Homo sapiens, UniProt Q9UM73); test: Inhibition of human ALK expressed in baculovirus using recombinant GST PLC-gamma as substrate assessed as phosphorylation of the substrate after 15 mins by TRF assay
Target sequence in this assay (Q9UM73 whole entry): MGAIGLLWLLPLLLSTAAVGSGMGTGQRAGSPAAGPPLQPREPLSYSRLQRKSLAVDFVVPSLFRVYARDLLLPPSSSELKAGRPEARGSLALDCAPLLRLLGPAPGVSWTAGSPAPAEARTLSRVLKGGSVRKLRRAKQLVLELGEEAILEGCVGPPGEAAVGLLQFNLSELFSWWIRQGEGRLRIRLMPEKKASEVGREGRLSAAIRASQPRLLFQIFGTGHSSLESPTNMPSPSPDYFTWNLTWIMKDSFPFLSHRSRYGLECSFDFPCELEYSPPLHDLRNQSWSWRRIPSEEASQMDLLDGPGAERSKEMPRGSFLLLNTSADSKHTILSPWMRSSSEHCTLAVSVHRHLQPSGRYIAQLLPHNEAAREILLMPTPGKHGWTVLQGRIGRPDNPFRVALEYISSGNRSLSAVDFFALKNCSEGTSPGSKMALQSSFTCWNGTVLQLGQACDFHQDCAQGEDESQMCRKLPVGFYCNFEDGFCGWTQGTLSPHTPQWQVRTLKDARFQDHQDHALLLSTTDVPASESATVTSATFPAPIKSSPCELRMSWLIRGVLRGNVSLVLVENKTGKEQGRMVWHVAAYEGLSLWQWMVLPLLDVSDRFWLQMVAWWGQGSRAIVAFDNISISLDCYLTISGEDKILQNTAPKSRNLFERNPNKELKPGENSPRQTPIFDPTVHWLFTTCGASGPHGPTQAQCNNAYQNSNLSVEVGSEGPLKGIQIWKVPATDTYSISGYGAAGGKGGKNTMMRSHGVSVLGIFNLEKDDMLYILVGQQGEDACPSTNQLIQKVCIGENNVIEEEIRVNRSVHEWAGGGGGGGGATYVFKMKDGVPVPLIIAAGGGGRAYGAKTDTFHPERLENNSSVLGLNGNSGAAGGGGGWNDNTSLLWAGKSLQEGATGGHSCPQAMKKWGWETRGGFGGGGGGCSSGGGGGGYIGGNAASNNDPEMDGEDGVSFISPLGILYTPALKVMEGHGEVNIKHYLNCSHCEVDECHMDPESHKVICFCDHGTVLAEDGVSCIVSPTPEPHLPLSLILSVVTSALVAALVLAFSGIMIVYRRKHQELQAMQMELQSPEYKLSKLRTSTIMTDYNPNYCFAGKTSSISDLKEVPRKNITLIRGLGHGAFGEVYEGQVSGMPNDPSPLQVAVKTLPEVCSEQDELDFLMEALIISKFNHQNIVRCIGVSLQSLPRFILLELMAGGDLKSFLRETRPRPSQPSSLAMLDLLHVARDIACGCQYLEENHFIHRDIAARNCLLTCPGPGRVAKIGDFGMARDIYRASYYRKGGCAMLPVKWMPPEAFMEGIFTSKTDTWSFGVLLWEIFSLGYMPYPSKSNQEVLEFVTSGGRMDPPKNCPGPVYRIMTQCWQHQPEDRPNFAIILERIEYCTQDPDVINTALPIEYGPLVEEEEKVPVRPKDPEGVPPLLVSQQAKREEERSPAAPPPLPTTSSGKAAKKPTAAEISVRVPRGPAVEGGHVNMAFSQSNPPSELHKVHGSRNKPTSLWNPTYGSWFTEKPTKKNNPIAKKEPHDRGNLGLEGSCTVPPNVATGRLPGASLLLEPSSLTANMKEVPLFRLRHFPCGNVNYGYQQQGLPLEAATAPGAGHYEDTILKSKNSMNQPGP

[3] = target: T1, ALK tyrosine kinase receptor; test: Inhibition of NPM-ALK phosphorylation in human SUP-M2 cells after 2 to 3 hrs by ELISA; assay type: cell-based
Target sequence in this assay (Q9UM73 19-1620 limits assumed): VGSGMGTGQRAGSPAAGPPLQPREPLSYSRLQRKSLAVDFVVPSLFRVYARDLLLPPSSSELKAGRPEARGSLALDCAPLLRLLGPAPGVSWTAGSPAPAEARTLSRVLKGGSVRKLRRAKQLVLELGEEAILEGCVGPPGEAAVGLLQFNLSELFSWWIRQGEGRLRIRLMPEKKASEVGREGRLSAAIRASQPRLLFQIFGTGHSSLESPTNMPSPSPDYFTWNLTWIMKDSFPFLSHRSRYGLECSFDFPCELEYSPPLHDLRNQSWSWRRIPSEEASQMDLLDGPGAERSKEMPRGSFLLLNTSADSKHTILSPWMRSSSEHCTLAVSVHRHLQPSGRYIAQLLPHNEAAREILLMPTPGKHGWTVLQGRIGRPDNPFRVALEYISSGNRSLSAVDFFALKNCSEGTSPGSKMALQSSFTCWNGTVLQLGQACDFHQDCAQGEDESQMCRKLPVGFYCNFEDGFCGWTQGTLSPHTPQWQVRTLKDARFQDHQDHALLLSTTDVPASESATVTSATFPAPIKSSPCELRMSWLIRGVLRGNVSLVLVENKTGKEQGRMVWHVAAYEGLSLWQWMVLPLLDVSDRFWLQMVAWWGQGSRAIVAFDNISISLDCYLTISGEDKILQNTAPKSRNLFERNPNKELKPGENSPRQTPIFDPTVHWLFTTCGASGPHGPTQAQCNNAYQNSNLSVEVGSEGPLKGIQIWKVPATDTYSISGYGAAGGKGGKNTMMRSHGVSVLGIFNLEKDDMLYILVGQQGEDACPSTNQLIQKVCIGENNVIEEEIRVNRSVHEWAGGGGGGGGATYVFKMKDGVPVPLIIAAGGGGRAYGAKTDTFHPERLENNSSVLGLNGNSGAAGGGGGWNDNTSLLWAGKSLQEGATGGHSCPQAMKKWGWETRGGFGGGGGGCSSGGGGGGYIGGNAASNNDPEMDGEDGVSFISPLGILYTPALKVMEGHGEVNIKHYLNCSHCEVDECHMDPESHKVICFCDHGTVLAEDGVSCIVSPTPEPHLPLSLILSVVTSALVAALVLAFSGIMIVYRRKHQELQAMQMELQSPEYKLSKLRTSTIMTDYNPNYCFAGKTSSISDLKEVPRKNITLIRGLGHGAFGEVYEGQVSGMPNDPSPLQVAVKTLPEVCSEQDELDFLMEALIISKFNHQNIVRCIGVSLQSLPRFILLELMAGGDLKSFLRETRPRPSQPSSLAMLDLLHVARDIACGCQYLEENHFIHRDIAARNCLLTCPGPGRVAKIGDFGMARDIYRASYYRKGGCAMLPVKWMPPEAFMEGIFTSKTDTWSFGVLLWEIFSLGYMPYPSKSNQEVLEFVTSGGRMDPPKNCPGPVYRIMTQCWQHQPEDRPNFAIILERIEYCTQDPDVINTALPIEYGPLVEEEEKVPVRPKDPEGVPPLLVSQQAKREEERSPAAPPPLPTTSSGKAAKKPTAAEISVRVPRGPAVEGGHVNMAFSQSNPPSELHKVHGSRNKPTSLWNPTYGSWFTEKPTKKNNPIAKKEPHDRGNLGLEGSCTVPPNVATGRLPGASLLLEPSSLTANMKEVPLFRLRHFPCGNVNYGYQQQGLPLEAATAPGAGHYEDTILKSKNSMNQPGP

[4] = Half life in human liver microsomes by LC/MS/MS analysis; assay type: ADME
[5] = Half life in rat liver microsomes by LC/MS/MS analysis; assay type: ADME
[6] = Oral bioavailability in Sprague-Dawley rat at 5 mg/kg by LC/MS/MS analysis; assay type: ADME, organism-based; conditions: in vivo
Cytochrome P450 2C19 = Cytochrome P450 2C19 (Homo sapiens, UniProt P33261); test: Inhibition of CYP2C19 in human liver microsomes using S-mephenytoin as substrate in presence of NADPH by LC/MS/MS analysis; assay type: ADME
Sequence of Cytochrome P450 2C19 (P33261 whole entry): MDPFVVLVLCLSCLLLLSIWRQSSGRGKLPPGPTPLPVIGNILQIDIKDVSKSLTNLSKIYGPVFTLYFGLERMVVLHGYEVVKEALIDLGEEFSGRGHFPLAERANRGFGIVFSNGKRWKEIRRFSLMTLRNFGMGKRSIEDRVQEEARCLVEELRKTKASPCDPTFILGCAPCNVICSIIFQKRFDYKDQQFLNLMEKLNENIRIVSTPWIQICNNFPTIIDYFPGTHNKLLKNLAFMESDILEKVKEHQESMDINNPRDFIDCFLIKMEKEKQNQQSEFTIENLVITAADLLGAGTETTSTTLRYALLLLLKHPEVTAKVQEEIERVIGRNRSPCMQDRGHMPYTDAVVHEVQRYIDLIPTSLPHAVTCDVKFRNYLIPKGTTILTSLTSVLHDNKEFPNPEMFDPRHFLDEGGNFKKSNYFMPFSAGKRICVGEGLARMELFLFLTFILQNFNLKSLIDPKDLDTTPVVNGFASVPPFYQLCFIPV

Cytochrome P450 3A4 = Cytochrome P450 3A4 (Homo sapiens, UniProt P08684); test: Inhibition of CYP3A4 in human liver microsomes using testosterone/midazolam as substrate in presence of NADPH by LC/MS/MS analysis; assay type: ADME
Cytochrome P450 2D6 = Cytochrome P450 2D6 (Homo sapiens, UniProt P10635); test: Inhibition of CYP2D6 in human liver microsomes using dextromethorphan as substrate in presence of NADPH by LC/MS/MS analysis; assay type: ADME
Sequence of Cytochrome P450 2D6 (P10635 whole entry): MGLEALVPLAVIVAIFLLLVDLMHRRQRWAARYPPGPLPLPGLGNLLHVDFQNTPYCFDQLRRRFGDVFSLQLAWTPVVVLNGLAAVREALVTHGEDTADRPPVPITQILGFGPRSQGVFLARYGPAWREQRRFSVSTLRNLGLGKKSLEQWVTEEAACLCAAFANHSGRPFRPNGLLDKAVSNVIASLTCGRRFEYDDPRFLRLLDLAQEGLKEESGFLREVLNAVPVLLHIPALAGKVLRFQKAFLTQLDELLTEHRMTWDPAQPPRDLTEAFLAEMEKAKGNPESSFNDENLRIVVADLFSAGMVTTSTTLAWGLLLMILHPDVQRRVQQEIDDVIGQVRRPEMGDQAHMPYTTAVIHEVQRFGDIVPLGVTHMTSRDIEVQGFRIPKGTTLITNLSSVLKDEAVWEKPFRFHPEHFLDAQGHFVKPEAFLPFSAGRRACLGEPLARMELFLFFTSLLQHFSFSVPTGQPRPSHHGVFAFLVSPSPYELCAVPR

[7] = Half life in cynomolgus monkey liver microsomes by LC/MS/MS analysis; assay type: ADME, Macaca fascicularis
[8] = AUC (0 to infinity) in Sprague-Dawley rat at 5 mg/kg, po by LC/MS/MS analysis; assay type: ADME, organism-based; parameters: dose 5 mg/kg, time infinity, route oral; conditions: in vivo
Cytochrome P450 1A2 = target: T2, Cytochrome P450 1A2 (Homo sapiens, UniProt P05177); test: Inhibition of CYP1A2 in human liver microsomes using phenacetin as substrate in presence of NADPH by LC/MS/MS analysis; assay type: ADME
T2 sequence (P05177 whole entry): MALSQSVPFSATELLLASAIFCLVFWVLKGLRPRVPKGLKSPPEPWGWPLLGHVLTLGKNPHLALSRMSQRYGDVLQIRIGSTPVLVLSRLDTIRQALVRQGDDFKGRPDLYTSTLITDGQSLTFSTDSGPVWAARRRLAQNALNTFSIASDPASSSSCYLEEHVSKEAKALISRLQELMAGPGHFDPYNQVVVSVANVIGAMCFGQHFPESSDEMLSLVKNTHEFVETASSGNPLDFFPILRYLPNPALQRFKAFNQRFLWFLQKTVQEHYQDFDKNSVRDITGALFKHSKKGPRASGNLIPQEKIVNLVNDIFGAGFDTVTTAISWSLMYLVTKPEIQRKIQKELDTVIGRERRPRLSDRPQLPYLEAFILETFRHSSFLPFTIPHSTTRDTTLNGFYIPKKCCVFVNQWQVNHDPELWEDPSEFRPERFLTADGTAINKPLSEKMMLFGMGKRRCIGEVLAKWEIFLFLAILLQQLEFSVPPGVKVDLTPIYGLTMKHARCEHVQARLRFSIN

[9] = Half life in CD-1 mouse liver microsomes by LC/MS/MS analysis; assay type: ADME
Cytochrome P450 2C9 = Cytochrome P450 2C9 (Homo sapiens, UniProt P11712); test: Inhibition of CYP2C9 in human liver microsomes using diclofenac as substrate in presence of NADPH by LC/MS/MS analysis; assay type: ADME
Sequence of Cytochrome P450 2C9 (P11712 whole entry): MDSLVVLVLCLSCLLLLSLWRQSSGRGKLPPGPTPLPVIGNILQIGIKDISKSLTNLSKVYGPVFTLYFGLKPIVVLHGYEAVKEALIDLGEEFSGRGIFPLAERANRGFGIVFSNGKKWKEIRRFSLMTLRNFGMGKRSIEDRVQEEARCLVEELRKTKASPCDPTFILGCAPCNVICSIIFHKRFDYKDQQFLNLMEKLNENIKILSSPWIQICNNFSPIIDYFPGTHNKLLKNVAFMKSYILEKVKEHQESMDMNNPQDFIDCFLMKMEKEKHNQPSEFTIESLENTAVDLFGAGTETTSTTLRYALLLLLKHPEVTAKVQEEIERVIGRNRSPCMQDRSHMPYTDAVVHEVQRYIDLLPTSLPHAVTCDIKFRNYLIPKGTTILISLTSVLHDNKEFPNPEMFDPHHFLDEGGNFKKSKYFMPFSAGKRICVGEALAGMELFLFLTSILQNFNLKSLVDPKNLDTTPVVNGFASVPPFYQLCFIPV

Insulin receptor = Insulin receptor (Homo sapiens, UniProt P06213)
[10] = AUC (0 to 6 hrs) in rat by LC/MS/MS analysis; assay type: ADME; parameters: time < 6 hr; conditions: in vivo
[11] = Apparent permeability from apical to basolateral side in human Caco2 cells; assay type: ADME, cell-based; conditions: Caco-2
[12] = Drug level in human liver microsomes treated with (1S,2S,3R,4R)-3-(5-chloro-2-((S)-1-methoxy-7-morpholino-6,7,8,9-tetrahydro-5H-benzo[7]annulen-2-ylamino)pyrimidin-4-ylamino)bicyclo[2.2.1]hept-5-ene-2-carboxamide at 10 uM after 120 mins in presence of NADPH by LC/MS/MS analysis; assay type: ADME; conditions: 2 h
[13] = Drug level in rat liver microsomes treated with (1S,2S,3R,4R)-3-(5-chloro-2-((S)-1-methoxy-7-morpholino-6,7,8,9-tetrahydro-5H-benzo[7]annulen-2-ylamino)pyrimidin-4-ylamino)bicyclo[2.2.1]hept-5-ene-2-carboxamide at 10 uM after 120 mins in presence of NADPH by LC/MS/MS analysis; assay type: ADME; conditions: 2 h
[14] = Drug metabolism in mouse liver microsomes assessed as methyl group loss from N-methylmethanesulfonamide; assay type: ADME
[15] = Drug metabolism in rat liver microsomes assessed as methyl group loss from N-methylmethanesulfonamide; assay type: ADME
[16] = Drug metabolism in cynomolgus monkey liver microsomes assessed as methyl group loss from N-methylmethanesulfonamide; assay type: ADME, Macaca fascicularis
[17] = Drug metabolism in human liver microsomes assessed as methyl group loss from N-methylmethanesulfonamide; assay type: ADME

| SMILES | IC50 [2] [µM] | IC50 [3] [µM] | half-life [4] [min] | half-life [5] [min] | bioavailability [6] [%] | IC50 [1] [µM] | other results |
| --- | --- | --- | --- | --- | --- | --- | --- |
| COc1c(Nc2ncc(Cl)c(N[C@H]3[C@@H](C(N)=O)[C@@H]4C=C[C@H]3C4)n2)ccc2c1CCCC(N1CCN(C)CC1)C2 (single isomer, unassigned) | 0.009 | 0.2 | 11 | 39 | 11 | 7.9 | IC50 (Cytochrome P450 2C19): > 10 µM; IC50 (Cytochrome P450 3A4): > 10 µM; IC50 (Cytochrome P450 2D6): > 10 µM; half-life [7]: 7 min; AUC(0-inf) [8]: 5.53 µg·h/mL; IC50 (Cytochrome P450 1A2): > 10 µM; half-life [9]: 40 min; IC50 (Cytochrome P450 2C9): > 10 µM |
| COc1c(Nc2ncc(Cl)c(Nc3ccccc3NS(C)(=O)=O)n2)ccc2c1CCCC(N1CCN(CCO)CC1)C2 (racemic) | 0.018 | – | 40 | 40 | – | – | IC50 (Insulin receptor): > 2 µM |
| COc1ccccc1Nc1nc(Nc2ccc3c(c2OC)CCCC(N2CCN(CCO)CC2)C3)ncc1Cl (racemic) | 0.044 | – | – | – | – | – | – |
| COc1c(Nc2ncc(Cl)c(N[C@H]3[C@@H](C(N)=O)[C@@H]4C=C[C@H]3C4)n2)ccc2c1CCC[C@H](N1CCN(C)CC1)C2 | 0.009 to 0.014 | 0.2 | 15 | 40 | 11 | 9.1 | IC50 (Cytochrome P450 2C19): > 10 µM; IC50 (Cytochrome P450 3A4): > 10 µM; IC50 (Cytochrome P450 2D6): > 10 µM; half-life [7]: 9 min; AUC(0-inf) [8]: 4.41 µg·h/mL; IC50 (Cytochrome P450 1A2): > 10 µM; half-life [9]: 40 min; IC50 (Cytochrome P450 2C9): > 10 µM |
| COc1c(Nc2ncc(Cl)c(N[C@H]3[C@@H](C(N)=O)[C@@H]4C=C[C@H]3C4)n2)ccc2c1CCC[C@H](N1CCOCC1)C2 | 0.007 | – | 6 | 5 | – | – | – |
| COc1c(Nc2ncc(Cl)c(N[C@H]3[C@@H](C(N)=O)[C@@H]4C=C[C@H]3C4)n2)ccc2c1CC(N1CCOCC1)CCC2 (stereo partly specified) | 0.039 | – | – | – | – | – | IC50 (Insulin receptor): > 10 µM |
| CNC(=O)c1ccccc1Nc1nc(Nc2ccc3c(c2OC)CCC[C@@H](N2CCN(CCO)CC2)C3)ncc1Cl | – | – | 40 | 40 | 18 | > 10 | IC50 (Cytochrome P450 2C19): > 5.6 µM; Papp A→B [11]: > 10 nm/s; IC50 (Cytochrome P450 2D6): > 5.6 µM; half-life [7]: 24 min; AUC(0-inf) [8]: 1.2 µg·h/mL; IC50 (Cytochrome P450 1A2): > 5.6 µM; half-life [9]: 40 min; IC50 (Cytochrome P450 2C9): > 5.6 µM |
| CNC(=O)c1ccccc1Nc1nc(Nc2ccc3c(c2OC)CCCC(N2CCN(CCO)CC2)C3)ncc1Cl (racemic) | – | – | > 40 | > 40 | 47 | ≥ 10 | – |
| COc1c(Nc2ncc(Cl)c(N[C@H]3[C@@H](C(N)=O)[C@H]4C[C@@H]3C3OC34)n2)ccc2c1CC[C@@H](N1CCOCC1)CC2 (stereo partly specified) | – | – | – | – | – | – | Drug metabolism [12]: Metabolite_Detected; Drug metabolism [13]: Metabolite_Detected |
| COCCNC1CCCc2c(ccc(Nc3ncc(Cl)c(N[C@H]4[C@@H](C(N)=O)[C@@H]5C=C[C@H]4C5)n3)c2OC)C1 (stereo partly specified) | 0.007 | – | 15 | 31 | – | – | – |

Further lines, with some results ahead:

| IC50 [2] [µM] | IC50 [3] [µM] | half-life [4] [min] | half-life [5] [min] | bioavailability [6] [%] | SMILES | IC50 [1] [µM] | other results |
| --- | --- | --- | --- | --- | --- | --- | --- |
| 0.0063 | 0.05 | – | – | – | COc1c(Nc2ncc(Cl)c(N[C@H]3[C@@H](C(N)=O)[C@@H]4C=C[C@H]3C4)n2)ccc2c1CCC[C@@H](N1CCN(CCO)CC1)C2 | > 10 | – |
| 0.0058 | 0.03 | 18 | 15 | 10 | COc1c(Nc2ncc(Cl)c(N[C@H]3[C@@H](C(N)=O)[C@@H]4C=C[C@H]3C4)n2)ccc2c1CCC[C@H](N1CCN(CCO)CC1)C2 | > 10 | – |
| 0.005 | 0.05 | 18 | 22 | 19 | COc1c(Nc2ncc(Cl)c(Nc3ccccc3-c3nccn3C)n2)ccc2c1CCCC(N1CCN(CCO)CC1)C2 (racemic) | – | – |
| 0.004 | 0.04 | 18 | 40 | 28 | COc1c(Nc2ncc(Cl)c(Nc3ccccc3S(=O)(=O)N(C)C)n2)ccc2c1CCCC(N1CCN(CCO)CC1)C2 (racemic) | 0.24 | – |
| 0.0061 | 0.06 | 16 | 38 | 48 | COc1c(Nc2ncc(Cl)c(Nc3ccccc3N3CCCS3(=O)=O)n2)ccc2c1CCCC(N1CCN(CCO)CC1)C2 (racemic) | – | – |
| 0.0023 | 0.04 | 12 | 33 | 9 | COc1c(Nc2ncc(Cl)c(Nc3ccccc3N(C)S(C)(=O)=O)n2)ccc2c1CCCC(N1CCN(C)CC1)C2 (racemic) | – | AUC(0-t) at 6 h [10]: 1.3 µg·h/mL |
| 0.0015 | – | 5 | 5 | – | COc1c(Nc2ncc(Cl)c(N[C@H]3[C@@H](C(N)=O)[C@@H]4C=C[C@H]3C4)n2)ccc2c1CCC[C@@H](N1CCOCC1)C2 | – | – |
| 0.0023 | 0.02 | 40 | 40 | 19 | COc1c(Nc2ncc(Cl)c(Nc3ccccc3-n3cccn3)n2)ccc2c1CCCC(N1CCN(CCO)CC1)C2 (racemic) | 3.7 | – |
| 0.002 | 0.03 | 13 | 37 | 38 | COc1c(Nc2ncc(Cl)c(Nc3ccccc3N(C)S(C)(=O)=O)n2)ccc2c1CCCC(N1CCN(CCO)CC1)C2 (racemic) | – | Drug metabolism [14]: Metabolite_Detected; Drug metabolism [15]: Metabolite_Detected; half-life [7]: 8 min; half-life [9]: 37 min; AUC(0-t) at 6 h [10]: 3.96 µg·h/mL; Drug metabolism [16]: Metabolite_Detected; Drug metabolism [17]: Metabolite_Detected |
